This is an account of results in US9732119B2, “Immunomodulators” (BRISTOL-MYERS SQUIBB COMPANY, priority 2014, dated 2017).

The structures appear in SMILES notation. Positions of bridges follow the written chain, without caps; N, C: chain ends. Non-standard residues stand in square brackets, D forms with d. Residues, ends and D or L forms follow the SMILES beside them. Trp(1-CH2COOH) = N[C@@H](Cc1cn(CC(=O)O)c2ccccc12)C(=O)O; Hyp = O=C(O)[C@@H]1C[C@@H](O)CN1; NMeNle = CCCC[C@H](NC)C(=O)O; Pip = O=C(O)[C@@H]1CCCCN1; Orn = NCCC[C@H](N)C(=O)O; Dab = NCC[C@H](N)C(=O)O; Dap = NC[C@H](N)C(=O)O

In this test the target is T1, PD-1-Ig binding to PD-L1-TVMV-His (PD-L1-His) (Homo sapiens, UniProt Q9NZQ7).
T1 construct: hPDL1(19-239)-TVMV-His; made in house; host or cells: HEK293T cells
Put plainly: PD-1/PD-L1 Homogenous Time-Resolved Fluorescence (HTRF) binding assay. The following applies: PD-1-Ig (20 nM) / PD-L1-His (10 nM); range classes. The source says:
The ability of the macrocyclic peptides of the present disclosure to bind to PD-L1 was investigated using a PD-1/PD-L1 Homogenous Time-Resolved Fluorescence (HTRF) binding assay.
Homogenous Time-Resolved Fluorescence (HTRF) Assays of Binding of Soluble PD-1 to Soluble PD-L1. Soluble PD-1 and soluble PD-L1 refers to proteins with carboxyl-end truncations that remove the transmembrane-spanning regions and are fused to heterologous sequences, specifically the Fc portion of the human immunoglobuling G sequence (Ig) or the hexahistidine epitope tag (His). All binding studies were performed in an HTRF assay buffer consisting of dPBS supplemented with 0.1% (w/v) bovine serum albumin and 0.05% (v/v) Tween-20. For the PD-1-Ig/PD-L1-His binding assay, inhibitors were pre-incubated with PD-L1-His (10 nM final) for 15 m in 4 μl of assay buffer, followed by addition of PD-1-Ig (20 nM final) in 1 μl of assay buffer and further incubation for 15 m. PD-L1 fusion proteins from either human, cynomologous macaques, mouse, or other species were used. HTRF detection was achieved using europium crypate-labeled anti-Ig monoclonal antibody (1 nM final) and allophycocyanin (APC) labeled anti-His monoclonal antibody (20 nM final). Antibodies were diluted in HTRF detection buffer and 5 μl was dispensed on top of binding reaction. […] Additional binding assays were established between PD-1-Ig/PD-L2-His (20 and 5 nM, respectively), CD80-His/PD-L1-Ig (100 and 10 nM, respectively) and CD80-His/CTLA4-Ig (10 and 5 nM, respectively).
Recombinant Proteins. […] Human PD-L2-His (Sino Biologicals), CD80-His (Sino Biologicals), CTLA4-Ig (RnD Systems) were all obtained through commercial sources.

T1 sequence (Q9NZQ7 with tags, fused parts or gaps): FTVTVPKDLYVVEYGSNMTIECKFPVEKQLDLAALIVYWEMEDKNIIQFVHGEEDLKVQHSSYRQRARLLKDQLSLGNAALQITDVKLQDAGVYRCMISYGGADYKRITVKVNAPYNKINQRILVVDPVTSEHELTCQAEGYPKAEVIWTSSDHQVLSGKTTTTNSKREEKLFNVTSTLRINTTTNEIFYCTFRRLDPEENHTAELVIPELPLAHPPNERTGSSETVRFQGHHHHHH

The compound `CCCC[C@H]1C(=O)N(C)[C@@H](CCCC)C(=O)N[C@@H](CC(C)C)C(=O)N[C@H](C(N)=O)CNCC(=O)N[C@@H](Cc2ccc(O)cc2)C(=O)N2CCCC[C@H]2C(=O)N[C@@H](CC(N)=O)C(=O)N2CCC[C@H]2C(=O)N[C@@H](Cc2c[nH]cn2)C(=O)N[C@@H](CC(=O)O)C(=O)N2C[C@H](O)C[C@H]2C(=O)N[C@@H](Cc2c[nH]c3ccccc23)C(=O)N[C@@H](C)C(=O)N[C@@H](Cc2cn(CC(=O)O)c3ccccc23)C(=O)N1C` [Example 9049] gave an IC50 of 1 to 9.9 nM. The compound `CCCC[C@H]1C(=O)N(C)[C@@H](CCCC)C(=O)N[C@@H](CC(C)C)C(=O)N[C@H](C(=O)NCC(N)=O)CNCC(=O)N[C@@H](Cc2ccc(OC)cc2)C(=O)N(C)[C@@H](C)C(=O)N[C@@H](CC(N)=O)C(=O)N2CCC[C@H]2C(=O)N[C@@H](CN)C(=O)N[C@@H](CC(C)C)C(=O)N2C[C@H](O)C[C@H]2C(=O)N[C@@H](Cc2c[nH]c3ccccc23)C(=O)N[C@@H](CCN)C(=O)N[C@@H](Cc2cn(CC(=O)O)c3ccccc23)C(=O)N1C` [Example 1039] yielded an IC50 of 1 to 9.9 nM. The figure for `CCCC[C@H]1C(=O)N(C)[C@@H](CCCC)C(=O)N[C@@H](CC(C)C)C(=O)N[C@H](C(=O)NCC(N)=O)CNCC(=O)N[C@@H](Cc2ccc(O)cc2)C(=O)N(C)[C@@H](C)C(=O)N[C@@H](CC(N)=O)C(=O)N2CCC[C@H]2C(=O)N[C@@H](Cc2cnc[nH]2)C(=O)N[C@@H](CC(C)C)C(=O)N2C[C@H](O)C[C@H]2C(=O)N[C@@H](Cc2c[nH]c3ccccc23)C(=O)NCC(=O)N[C@@H](Cc2c[nH]c3ccccc23)C(=O)N1C` [Example 10026] is 10 to 99 nM. In the case of `CCCC[C@H]1C(=O)N(C)[C@@H](CCCC)C(=O)N[C@@H](CC(C)C)C(=O)N[C@H](C(=O)NCC(N)=O)CNCC(=O)N[C@@H](Cc2ccc(F)cc2)C(=O)N(C)[C@@H](C)C(=O)N[C@@H](CC(N)=O)C(=O)N2CCC[C@H]2C(=O)N[C@@H](CCC(N)=O)C(=O)N[C@@H](CCC(=O)O)C(=O)N2C[C@H](O)C[C@H]2C(=O)N[C@@H](Cc2c[nH]c3ccccc23)C(=O)N[C@@H](CC(N)=O)C(=O)N[C@@H](Cc2cn(CC(=O)O)c3ccccc23)C(=O)N1C` [Example 9011] it was 10 to 99 nM; in that of `CCCC[C@H]1C(=O)N(C)[C@@H](CCCC)C(=O)N[C@@H](CCC(=O)O)C(=O)N[C@H](C(=O)NCC(N)=O)CNCC(=O)N[C@@H](Cc2ccc(O)cc2)C(=O)N(C)[C@@H](C)C(=O)N[C@@H](CC(N)=O)C(=O)N2CCC[C@H]2C(=O)N[C@@H](CCC(N)=O)C(=O)N[C@@H](CC(C)C)C(=O)N2C[C@H](O)C[C@H]2C(=O)N[C@@H](Cc2c[nH]c3ccccc23)C(=O)N[C@@H](CC(N)=O)C(=O)N[C@@H](Cc2cn(CC(=O)O)c3ccccc23)C(=O)N1C` [Example 9018], 1 to 9.9 nM; in that of `CCCC[C@H]1C(=O)N(C)[C@@H](CCCC)C(=O)N[C@@H](CC(C)C)C(=O)N[C@H](C(=O)NCC(N)=O)CNCC(=O)N[C@@H](Cc2ccc(F)cc2)C(=O)N(C)[C@@H](C)C(=O)N[C@@H](CC(N)=O)C(=O)N2CCC[C@H]2C(=O)N[C@@H](CCC(N)=O)C(=O)N[C@@H](CC(=O)O)C(=O)N2C[C@H](O)C[C@H]2C(=O)N[C@@H](Cc2c[nH]c3ccccc23)C(=O)N[C@@H](CC(N)=O)C(=O)N[C@@H](Cc2cn(CC(=O)O)c3ccccc23)C(=O)N1C` [Example 9010], 10 to 99 nM. The figure for `CCCC[C@H]1C(=O)N(C)[C@@H](CCCC)C(=O)N[C@@H](CC(C)C)C(=O)NCCC[C@H](N)C(=O)N[C@@H](Cc2ccc(OC)cc2)C(=O)N2CCCC[C@H]2C(=O)N[C@@H](CC(N)=O)C(=O)N2CCC[C@H]2C(=O)N[C@@H](CN)C(=O)N[C@@H](CCC(=O)O)C(=O)N2C[C@H](O)C[C@H]2C(=O)N[C@@H](Cc2c[nH]c3ccccc23)C(=O)N[C@@H](CCN)C(=O)N[C@@H](Cc2cn(CC(=O)O)c3ccccc23)C(=O)N1C` [Example 10551] (H-[Orn]Y(Me)[Pip]NP[Dap]E[Hyp]W[Dab][Trp(1-CH2COOH)][NMeNle][NMeNle]L; lactam 1-C) is 1 to 9.9 nM.
